Laboratory results: US20240368145A1, “METHODS FOR TREATING CANCER” (IMMUNIC AG, priority 2021, published 2024)

Assays:
Type in all cases: cell-based
IL-17A = assay: Cytokine assay, human PBMC stimulated with PHA: IL-17A; conditions: PHA-activated, 48 hours, read-out: IL-17A inhibition (IC50 range)
Description: (§1) Peripheral blood mononuclear cells (PBMC) from healthy human donors were purified using Accuspin™ System-Histopaque-1077 (Sigma) according to the protocol recommended by the manufacturer. Purified PBMC were then washed twice with phosphate-buffered saline (PBS) and resuspended in RPMI1640 culture medium supplemented with 10% dialyzed heat inactivated fetal calf serum, 1.5 mM L-glutamine, 100 U penicillin/mL and […] streptomycin/mL (all from PAN Biotech, Aidenbach, Germany). For stimulation, PBMC were seeded at 1×10^5 cells/well, activated with 2 gg/mL phytohaemagglutinin (PHA, Sigma) and incubated with the test compounds for 48 hours. IL-17A, IL-17F and INFγ were then determined in the culture supernatant using a Luminex BioPlex system, following the manufacturer's instructions (BioRad, Munich, Germany). To determine the IC50, compounds were titrated semilogarithmically.
(§2) Cytokines were determined in the aforementioned culture supernatant using the following methods: IL-17A was measured using the human homodimer IL-17A ELISA Ready Set Go Kit from cBioscience (Frankfurt, Germany); IL-17F using the human IL-17F ELI-Pair from Holzel Diagnostica GmbH (K51n, Germany); and IFNγ using the OptEIA human IFN-g ELISA from BD Bioscience (Heidelberg, Germany), all following the manufacturer's instructions.

IL-17F = assay: Cytokine assay, human PBMC stimulated with PHA: IL-17F; conditions: PHA-activated, 48 hours, read-out: IL-17F inhibition (IC50 range)
Description: as §1, §2

IFNγ = assay: Cytokine assay, human PBMC stimulated with PHA: IFNγ; conditions: PHA-activated, 48 hours, read-out: IFNγ inhibition (IC50 range)
Description: as §1, §2

[1] = test system: full length AR (AR-FL) mRNA; assay: Androgen receptor RNA level expression (qRT-PCR) in 22Rv1: AR-FL; conditions: 22Rv1, 1 μM, 48 h; for mrna remaining at 1 µM: Homo sapiens, normalized to untreated control (vehicle/DMSO)
Description: (§3) The prostate cancer cell line 22Rv1 was treated for 48 h with 1 μM Example compound 1, 1/1, 1/2, 2/1, 2/2, 2/3, 2/4, 2/5, 2/6, 2/7, 2/8, 2/9 and 2/10 and the reference compounds SR2211 and XY018 (Nat. Med. 2016; 22:488). RNA was extracted using the RNA isolation kit XS (Macherey-Nagel) and following the manufacture's manual. RNA quantity was measured with the Nanodrop before reverse transcription using Superscript II (Invitrogen #100004925). For the quantitative real-time PCR with SYBR-Green (Qiagen #204074), the following primers were used: AR forward-ACATCAAGGAACTCGATCGTATCATTGC and reverse-TTGGGCACTTGCACAGAGAT, AR-V7: forward-CCATCTTGTCGTCTTCGGAAATGTTATGAAGC and reverse-TTTGAATGAGGCAAGTCAGCCTTTCTT. The qRT-PCR proceeded as follows: denaturation for 5 min 95° C.; 40 cycles of “20 sec at 95° C. and 15 sec at 60° C.” and at the end of the last cycle, the melting temperature of the products was determined by gradually increasing it from 60° C. to 99° C. CT values from all samples were normalized to two different reference (housekeeping) genes using the mean CT value of the GAPDH and YWHAZ (reference genes). Next the values are normalized to the untreated control (vehicle/DMSO).

AR-V7 mRNA = assay: Androgen receptor RNA level expression (qRT-PCR) in 22Rv1: AR-V7; conditions: 22Rv1, 1 μM, 48 h; for mrna remaining at 1 µM: Homo sapiens, normalized to untreated control (vehicle/DMSO)
Description: as §3

KLK2 mRNA = assay: Expression of AR target genes (qRT-PCR) in 22Rv1: KLK2; conditions: 22Rv1, 1 μM; for mrna remaining at 1 µM: Homo sapiens, 48h, relative to vehicle control (DMSO); for KLK2 mRNA level expression: 48 h
Description: (§4) The prostate cancer cell line 22Rv1 was treated for 48h with 1 μM Example compound 1, 1/1, 2/1, 2/2, 2/3, 2/4, 2/5, 2/6, 2/7, 2/8, 2/9 and 2/10 and reference compounds SR2211 and XY018. RNA was extracted using the RNA isolation kit XS (Macherey-Nagel) and following the manufacture's manual. RNA quantity was measured with the Nanodrop before reverse transcription using Superscript II (Invitrogen #100004925). For the quantitative real-time PCR with SYBR-Green (Qiagen #204074), the following primers were used:
(§5) qRT-PCR was performed using SYBR-Green (Qiagen #204074) reagents in a PCR cycler (Gorbett Research) Rotor Gene RG3000 with the following program: denaturation for 5′ at 95° C.; 40 cycles of 20″ at 95° C. and 15″ at 60° C.″ and at the end of the last cycle, the melting temperature of the products was determined by gradually increasing from 60° C. to 99° C. CT values from all samples were normalized to reference (housekeeping) genes using the mean CT value of the GAPDH and YWHAZ (reference genes). Next the values are put relative to the untreated control (vehicle/DMSO).

NKX3.1 mRNA = assay: Expression of AR target genes (qRT-PCR) in 22Rv1: NKX3.1; conditions: Homo sapiens; 22Rv1, 1 μM, 48h; relative to vehicle control (DMSO)
Description: as §4, §5

FKBP5 mRNA = assay: Expression of AR target genes (qRT-PCR) in 22Rv1: FKBP5; conditions: Homo sapiens; 22Rv1, 1 μM, 48h; relative to vehicle control (DMSO)
Description: as §4, §5

[2] = test system: prostate cancer cell line 22RV1; assay: Oncolead sulforhodamin B growth inhibition, 22RV1; conditions: Homo sapiens, sulforhodamin B assay, 72 and 120 h treatment, read-out: GI50 range 22RV1
Description: (§6) Cell growth was assessed by measuring protein content using sulforhodamin B. Growth inhibition was calculated by (TCMD−T0)/TNCT72h−T0)*100% with TCMD is the tumor growth at 72 h with the respective compound concentration. To is the protein content of the cell line before treatment and TNCT72h is the tumor growth of the DMSO control.

[3] = test system: prostate cancer cell line PC3; assay: Oncolead sulforhodamin B growth inhibition, PC3; conditions: sulforhodamin B assay; 72 and 120 h treatment; read-out: GI50 range PC3
Description: as §6

[4] = test system: prostate cancer cell line DU145; assay: Oncolead sulforhodamin B growth inhibition, DU145; conditions: Homo sapiens, DU-145; sulforhodamin B assay; 72 and 120 h treatment; read-out: GI50 range DU145
Description: as §6

[5] = test system: prostate cancer cell line VCaP; assay: Oncolead sulforhodamin B growth inhibition, VCaP; conditions: Homo sapiens, VCaP; sulforhodamin B assay; 72 and 120 h treatment; read-out: GI50 range VCAP
Description: as §6

[6] = test system: prostate cancer cell line LNCAP; assay: Oncolead sulforhodamin B growth inhibition, LNCAP; conditions: Homo sapiens, sulforhodamin B assay, 72 and 120 h treatment, read-out: GI50 range LNCAP
Description: as §6

RORγt = biological target: T1, RORγt (Homo sapiens, UniProt P51449); assay: RORγt inhibition, Indigo Biosciences Human RAR-related Orphan Receptor, Gamma Reporter Assay System; conditions: luciferase reporter cells, 22-24 h incubation; read-out: IC50 range, RORγt assay
T1 sequence (P51449 269-518 limits assumed): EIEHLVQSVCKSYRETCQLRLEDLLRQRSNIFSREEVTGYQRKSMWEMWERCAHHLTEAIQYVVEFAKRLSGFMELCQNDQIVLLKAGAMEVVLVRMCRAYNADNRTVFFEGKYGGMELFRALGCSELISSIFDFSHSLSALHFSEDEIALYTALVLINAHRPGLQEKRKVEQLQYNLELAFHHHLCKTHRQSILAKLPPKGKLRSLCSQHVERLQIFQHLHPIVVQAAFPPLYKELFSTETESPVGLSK
Description: The in vitro inhibition of RORγt was measured using Indigo Biosciences Human RAR-related Orphan Receptor, Gamma Reporter Assay System (Product #11304001-32) as described in the technical manual. In brief, 200 μL of Reporter Cells is dispensed into wells of the assay plate and preincubated for 4-6 h. Following the pre-incubation period, culture media are discarded and 200 μL/well of the prepared 1×-concentration treatment media are added. Following 22-24 h incubation, treatment media are discarded and Luciferase Detection Reagent is added. The intensity of light emission (in units of ‘Relative Light Units’; RLU) from each assay well is quantified using a plate-reading luminometer. Average values of RLU were determined for each treatment concentration. Non-linear regression analyses were performed and IC50 values determined using GraphPad Prism software. Provided inverse-agonists ursolic acid served as positive control.

Compound	IC50 (IL-17A)	IC50 (IL-17F)	IC50 (IFNγ)	full length AR (AR-FL) mRNA expression [1]	mrna remaining at 1 µM [1]	AR-V7 mRNA expression (AR-V7 mRNA)	mrna remaining at 1 µM (AR-V7 mRNA)	mrna remaining at 1 µM (KLK2 mRNA)	mrna remaining at 1 µM (NKX3.1 mRNA)	mrna remaining at 1 µM (FKBP5 mRNA)	GI50 [2]	GI50 [3]	GI50 [4]	GI50 [5]	GI50 [6]	IC50 (RORγt)	KLK2 mRNA level expression (KLK2 mRNA)
C[C@H](O)Cn1ncc(-c2onc(-c3c(F)cccc3Cl)c2-c2nccs2)c1C(F)(F)F [Example 2/1]	< 25 nM	< 25 nM	< 25 nM	strong reduction	42.4%	strong reduction	22.8%	56.9%	39.9%	34.4%							
CC(=O)O[C@H]1C(=O)[C@@]2(C)[C@H]([C@H](OC(=O)c3ccccc3)[C@]3(O)C[C@H](OC(=O)[C@H](O)[C@@H](NC(=O)c4ccccc4)c4ccccc4)C(C)=C1C3(C)C)[C@]1(OC(C)=O)CO[C@@H]1C[C@@H]2O [paclitaxel, reference compound]											< 25 nM	< 25 nM	< 25 nM	< 25 nM	< 25 nM		
Fc1cccc(Cl)c1-c1noc(-c2cnn(-c3cccc(Cl)c3)c2C(F)(F)F)c1COC1CC1 [Example 2, 3-(2-Chloro-6-fluorophenyl)-5-(1-(3-chlorophenyl)-5-(trifluoromethyl)-1H-pyrazol-4-yl)-4-(cyclopropoxymethyl)isoxazole]																< 10 nM	
CCOC(=O)c1c(-c2cccc(OC)c2Cl)noc1-c1cnn(CCC(C)(C)O)c1C(F)(F)F [2/10]	< 25 nM	< 25 nM	< 25 nM	strong reduction	53.1%	strong reduction	22.7%	37.9%	32.2%	27.7%							strong inhibition
CC(C)(O)CCn1ncc(-c2onc(-c3c(F)cccc3Cl)c2-c2ncccn2)c1C(F)F [Example 1/2, 4-(4-(3-(2-Chloro-6-fluorophenyl)-4-(pyrimidin-2-yl)isoxazol-5-yl)-5-(difluoromethyl)-1H-pyrazol-1-yl)-2-methylbutan-2-ol]				strong reduction	52.4%	strong reduction	50.9%									10 to 100 nM	
CNC(=O)c1ccc(N2C(=S)N(c3ccc(C#N)c(C(F)(F)F)c3)C(=O)C2(C)C)cc1F [enzalutamide, reference compound]											≥ 5000 nM	≥ 5000 nM	≥ 5000 nM	100 to 5000 nM	100 to 5000 nM		
COc1cccc(-c2noc(-c3cnn([C@H]4C[C@@](C)(O)C4)c3C(F)(F)F)c2COC2CC2)c1Cl [2/9]	< 25 nM	< 25 nM	< 25 nM	strong reduction	49.9%	strong reduction	29.3%	41.2%	48.2%	31.5%							
CC(C)(O)CCn1ncc(-c2onc(-c3cccc(OCCN4CCOCC4)c3Cl)c2-c2ncccn2)c1C(F)(F)F [2/7]	25 to 100 nM	< 25 nM	< 25 nM	strong reduction	42.5%	strong reduction	22.8%	43.6%	30.5%	27.5%						100 to 1000 nM	strong inhibition
C[C@H](O)Cn1ncc(-c2onc(-c3cccc(C(=O)N4CCCC4)c3Cl)c2-c2ccncn2)c1C(F)(F)F [2/3]	25 to 100 nM	25 to 100 nM	25 to 100 nM	strong reduction	43.4%	strong reduction	25.5%	41.1%	35.7%	24.5%							strong inhibition
C[C@]1(O)C[C@@H](n2ncc(-c3onc(-c4c(F)cccc4Cl)c3-c3ccncn3)c2C(F)(F)F)C1 [2/4]	25 to 100 nM	< 25 nM	< 25 nM	strong reduction	43.5%	strong reduction	25.4%	42.6%	35.9%	29.8%							strong inhibition
